# Data published in patent US12594276B2, “Inhibitors of human immunodeficiency virus replication” (ViiV Healthcare UK (No.5) Limited, priority 2024, dated 2026).
# Assays:
# [1] = Compound cytotoxicity, XTT-based colorimetric assay; format: cell-based; conditions: human; uninfected MT2 cells, day 4, XTT; read-out: CC50
# In short: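 Follows the antiviral assay procedure, but with uninfected MT2 cells. On day 4, cell viability is measured by XTT-based colorimetry, giving CC50 values.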
# [2] = test system: recombinant NL4-3 virus (nef section replaced with Renilla luciferase gene) in MT-2 cells; test: HIV cell culture assay (antiviral activity, luciferase readout); format: cell-based; conditions: Renilla, NL43, MT-2 cells infected for 4-5 days with recombinant NL4-3 Renilla luciferase virus
# In short: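 EC50 was derived by median-effect fitting of Renilla luciferase signal from MT-2 cells. These cells were infected for 4–5 days with NL4-3 reporter virus (nef partly replaced by luciferase; made in 293T cells) in the presence of serially diluted compound. Activity was quantified with a live-cell luciferase substrate.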
Compound,CC50 at 4 days [1] [nM],EC50 [2] [nM]
"Cc1cc(C2(F)CCC(F)(F)CC2)nc2nc([C@H](Cc3cc(F)cc(F)c3)NC(=O)Cn3nc(C4CC4)c4c3C[C@@H]3C[C@H]43)n(-c3ccc(Cl)c4c(NS(C)(=O)=O)nn(CCN5C[C@@H](C)O[C@@H](C)C5)c34)c(=O)c12 (atropisomer, axis not shown; (P)) [Example 503, N-[(1S)-1-[(3P)-3-(4-chloro-1-{2-[(2R,6S)-2,6-dimethylmorpholin-4-yl]ethyl}-3-methanesulfonamido-1H-indazol-7-yl)-5-methyl-4-oxo-7-(1,4,4-trifluorocyclohexyl)-3H,4H-pyrido[2,3-d]pyrimidin-2-yl]-2-(3,5-difluorophenyl)ethyl]-2-[(2S,4S)-9-cyclopropyl-7,8-diazatricyclo[4.3.0.0^2,4]nona-1(6),8-dien-7-yl]acetamide]",> 20,0.008
"Cc1cc(C2(F)CCC(F)(F)CC2)nc2nc([C@H](Cc3cc(F)cc(F)c3)NC(=O)Cn3nc(C4CC4)c4c3C[C@@H]3C[C@H]43)n(-c3ccc(Cl)c4c(NS(C)(=O)=O)nn(CCN5CC(C)(C)OC(C)(C)C5)c34)c(=O)c12 (atropisomer, axis not shown; (P)) [Example 504, N-[(1S)-1-[(3P)-3-{4-chloro-3-methanesulfonamido-1-[2-(2,2,6,6-tetramethylmorpholin-4-yl)ethyl]-1H-indazol-7-yl}-5-methyl-4-oxo-7-(1,4,4-trifluorocyclohexyl)-3H,4H-pyrido[2,3-d]pyrimidin-2-yl]-2-(3,5-difluorophenyl)ethyl]-2-[(2S,4S)-9-cyclopropyl-7,8-diazatricyclo[4.3.0.0^2,^4]nona-1(6),8-dien-7-yl]acetamide]",> 20,0.049
"Cc1cc(C2(C)CCC(F)(F)CC2)nc2nc([C@H](Cc3cc(F)cc(F)c3)NC(=O)Cn3nc(C(F)F)c4c3C(F)(F)[C@@H]3C[C@H]43)n(-c3ccc(Cl)c4c(NS(C)(=O)=O)nn(CCN5C[C@@H](C)O[C@@H](C)C5)c34)c(=O)c12 (atropisomer, axis not shown; (P)) [Example 505, N-[(1S)-1-[(3P)-3-(4-chloro-1-{2-[(2R,6S)-2,6-dimethylmorpholin-4-yl]ethyl}-3-methanesulfonamido-1H-indazol-7-yl)-7-(4,4-difluoro-1-methylcyclohexyl)-5-methyl-4-oxo-3H,4H-pyrido[2,3-d]pyrimidin-2-yl]-2-(3,5-difluorophenyl)ethyl]-2-[(2S,4R)-9-(difluoromethyl)-5,5-difluoro-7,8-diazatricyclo[4.3.0.0^2,^4]nona-1(6),8-dien-7-yl]acetamide]",> 20,0.013
"Cc1cc(C2(C)CCC(F)(F)CC2)nc2nc([C@H](Cc3cc(F)cc(F)c3)NC(=O)Cn3nc(C4CC4)c4c3C[C@@H]3C[C@H]43)n(-c3ccc(Cl)c4c(NS(C)(=O)=O)nn(CCN5CC(C)(C)OC(C)(C)C5)c34)c(=O)c12 (atropisomer, axis not shown; (P)) [Example 506, N-[(1S)-1-[(3P)-3-{4-chloro-3-methanesulfonamido-1-[2-(2,2,6,6-tetramethylmorpholin-4-yl)ethyl]-1H-indazol-7-yl}-7-(4,4-difluoro-1-methylcyclohexyl)-5-methyl-4-oxo-3H,4H-pyrido[2,3-d]pyrimidin-2-yl]-2-(3,5-difluorophenyl)ethyl]-2-[(2S,4S)-9-cyclopropyl-7,8-diazatricyclo[4.3.0.0^2,^4]nona-1(6),8-dien-7-yl]acetamide]",> 20,0.027
"Cc1cc(C2(C)CCC(F)(F)CC2)nc2nc([C@H](Cc3cc(F)cc(F)c3)NC(=O)Cn3nc(C(F)F)c4c3C(F)(F)[C@@H]3C[C@H]43)n(-c3ccc(Cl)c4c(NS(C)(=O)=O)nn(CCN5CC(C)(C)OC(C)(C)C5)c34)c(=O)c12 (atropisomer, axis not shown; (P)) [Example 507, N-[(1S)-1-[(3P)-3-{4-chloro-3-methanesulfonamido-1-[2-(2,2,6,6-tetramethylmorpholin-4-yl)ethyl]-1H-indazol-7-yl}-7-(4,4-difluoro-1-methylcyclohexyl)-5-methyl-4-oxo-3H,4H-pyrido[2,3-d]pyrimidin-2-yl]-2-(3,5-difluorophenyl)ethyl]-2-[(2S,4R)-9-(difluoromethyl)-5,5-difluoro-7,8-diazatricyclo[4.3.0.0^2,^4]nona-1(6),8-dien-7-yl]acetamide]",> 20,0.021
"Cc1cc(C2(C)CCC(F)(F)CC2)nc2nc([C@H](Cc3cc(F)cc(F)c3)NC(=O)Cn3nc(C4CC4)c4c3C[C@@H]3C[C@H]43)n(-c3ccc(Cl)c4c(NS(C)(=O)=O)nn(CCN5C[C@@H](C)O[C@@H](C)C5)c34)c(=O)c12 (atropisomer, axis not shown; (P)) [Example 508, N-[(1S)-1-[(3P)-3-(4-chloro-1-{2-[(2R,6S)-2,6-dimethylmorpholin-4-yl]ethyl}-3-methanesulfonamido-1H-indazol-7-yl)-7-(4,4-difluoro-1-methylcyclohexyl)-5-methyl-4-oxo-3H,4H-pyrido[2,3-d]pyrimidin-2-yl]-2-(3,5-difluorophenyl)ethyl]-2-[(2S,4S)-9-cyclopropyl-7,8-diazatricyclo[4.3.0.0^2,^4]nona-1(6),8-dien-7-yl]acetamide]",> 20,0.012
"COCCCn1nc(NS(C)(=O)=O)c2c(Cl)ccc(-n3c([C@H](Cc4cc(F)cc(F)c4)NC(=O)Cn4nc(C(F)F)c5c4C(F)(F)[C@@H]4C[C@H]54)nc4nc(C5CCC(F)(F)CC5)cc(NCCN5C[C@H](F)C[C@H](F)C5)c4c3=O)c21 (atropisomer, axis not shown; (P)) [Example 509, N-[(1S)-1-[(3P)-3-[4-chloro-3-methanesulfonamido-1-(3-methoxypropyl)-1H-indazol-7-yl]-7-(4,4-difluorocyclohexyl)-5-({2-[(3R,5S)-3,5-difluoropiperidin-1-yl]ethyl}amino)-4-oxo-3H,4H-pyrido[2,3-d]pyrimidin-2-yl]-2-(3,5-difluorophenyl)ethyl]-2-[(2S,4R)-9-(difluoromethyl)-5,5-difluoro-7,8-diazatricyclo[4.3.0.0^2,^4]nona-1(6),8-dien-7-yl]acetamide]",> 20,0.006
"CS(=O)(=O)Nc1nn(CCN2C[C@H](F)C[C@H](F)C2)c2c(-n3c([C@H](Cc4cc(F)cc(F)c4)NC(=O)Cn4nc(C(F)F)c5c4C(F)(F)[C@@H]4C[C@H]54)nc4nc(C5CCC(F)(F)CC5)cc(CF)c4c3=O)ccc(Cl)c12 (atropisomer, axis not shown; (P)) [Example 512, N-[(1S)-1-[(3P)-3-(4-chloro-1-{2-[(3R,5S)-3,5-difluoropiperidin-1-yl]ethyl}-3-methanesulfonamido-1H-indazol-7-yl)-7-(4,4-difluorocyclohexyl)-5-(fluoromethyl)-4-oxo-3H,4H-pyrido[2,3-d]pyrimidin-2-yl]-2-(3,5-difluorophenyl)ethyl]-2-[(2S,4R)-9-(difluoromethyl)-5,5-difluoro-7,8-diazatricyclo[4.3.0.0^2,^4]nona-1(6),8-dien-7-yl]acetamide]",> 20,0.006
